Molecules are shown by their SMILES.

In one test the target is T1, TGF-beta receptor type-1 (Homo sapiens, UniProt P36897).
T1 sequence (P36897 whole entry): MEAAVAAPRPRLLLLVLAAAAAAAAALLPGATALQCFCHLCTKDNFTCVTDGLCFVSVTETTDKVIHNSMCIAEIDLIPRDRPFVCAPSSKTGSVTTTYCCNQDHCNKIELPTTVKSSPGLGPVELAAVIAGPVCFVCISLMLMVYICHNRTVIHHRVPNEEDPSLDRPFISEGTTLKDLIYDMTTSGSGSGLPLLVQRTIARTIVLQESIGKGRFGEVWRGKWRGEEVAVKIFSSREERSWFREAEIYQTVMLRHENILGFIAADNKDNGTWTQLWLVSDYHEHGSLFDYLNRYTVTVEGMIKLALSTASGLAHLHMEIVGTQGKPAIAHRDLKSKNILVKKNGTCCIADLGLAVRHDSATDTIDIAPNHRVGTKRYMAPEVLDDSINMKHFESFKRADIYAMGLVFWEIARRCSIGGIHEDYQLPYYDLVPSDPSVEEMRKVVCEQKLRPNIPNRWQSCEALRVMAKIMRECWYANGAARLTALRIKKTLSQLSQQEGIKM
As to the kind of experiment: Inhibition of human ALK5 in presence of 1 microM ATP.

The target in test [1] is T2, TGF-beta receptor type-1 (Homo sapiens) (UniProt P36897).
T2 sequence (whole entry): T1 sequence (P36897 whole entry)
As to the kind of experiment: Inhibition of human ALK5 at 10 uM in presence of 1 microM ATP relative to control.

The target of test [2] is Mitogen-activated protein kinase 14 (Homo sapiens) (UniProt Q16539). Description: Inhibition of human P38alpha/MAPK at 10 uM in presence of 1 microM ATP.
Chain of Mitogen-activated protein kinase 14 (Homo sapiens) (Q16539 whole entry): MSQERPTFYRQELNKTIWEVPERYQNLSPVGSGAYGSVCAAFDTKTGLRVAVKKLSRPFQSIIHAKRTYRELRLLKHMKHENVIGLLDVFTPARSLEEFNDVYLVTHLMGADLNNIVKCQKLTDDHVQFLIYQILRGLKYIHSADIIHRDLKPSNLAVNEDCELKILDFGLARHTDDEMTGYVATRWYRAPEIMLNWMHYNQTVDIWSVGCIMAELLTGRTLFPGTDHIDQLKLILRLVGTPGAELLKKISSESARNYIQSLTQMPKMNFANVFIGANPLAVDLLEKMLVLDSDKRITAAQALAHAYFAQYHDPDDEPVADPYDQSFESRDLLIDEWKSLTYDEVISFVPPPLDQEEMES

For `Cc1cccc(-n2nnc(CCCCO)c2-c2ccc3nccnc3c2)n1`, the IC50 at TGF-beta receptor type-1 came to 50.8 µM. In test [1], the inhibition amounted to 20.4%.
For the molecule `CCCCc1nnn(-c2cccc(C)n2)c1-c1ccc2nccnc2c1`, on TGF-beta receptor type-1, the IC50 was determined as 7.38 µM. Further, the inhibition in test [1] is 70%; in test [2], -2.52%.
For `Cc1cccc(-n2nnc(-c3cc(F)cc(F)c3)c2-c2ccc3nccnc3c2)n1`, the inhibition was found to be 17.4% in test [1] and 40.4% in test [2].
As to `Cc1cccc(-n2nnc(Cc3ccccc3)c2-c2ccc3nccnc3c2)n1`, on TGF-beta receptor type-1, the IC50 was 4.69 µM. The inhibition in test [1] was 80.8%; in test [2], -1.94%.
In the case of `Cc1cccc(-n2nnc(CCC(C)C)c2-c2ccc3nccnc3c2)n1`, the IC50 on TGF-beta receptor type-1 was 8.6 µM. The inhibition in test [1] was 73.1%; in test [2], -5.91%.
Regarding `Cc1cccc(-n2nnc(-c3ccccc3)c2-c2ccc3nccnc3c2)n1`, the inhibition in test [1] was -4.94%; in test [2], 31.2%.
For the molecule `COc1ccccc1-c1nnn(-c2cccc(C)n2)c1-c1ccc2nccnc2c1`, on TGF-beta receptor type-1, the IC50 worked out at 34.5 µM. Moreover, the inhibition in test [1] worked out at 34.9%; in test [2], 18.4%.
With `COc1ccc(-c2nnn(-c3cccc(C)n3)c2-c2ccc3nccnc3c2)cc1`, the inhibition in test [1] came out at 0.26%.
Regarding `COc1cc(OC)cc(-c2nnn(-c3cccc(C)n3)c2-c2ccc3nccnc3c2)c1`, the inhibition in test [1] is 23.4%; in test [2], -6.87%.
`Cc1ccc(-c2nnn(-c3cccc(C)n3)c2-c2ccc3nccnc3c2)cc1`: the inhibition in test [1] was 20.7%; in test [2] it was -5.07%.
In the same order, the values of `Cc1cccc(-n2nnc(-c3ccc(F)cc3)c2-c2ccc3nccnc3c2)n1` are 8.19% and 30.9%.

The values are drawn from ChEMBL document CHEMBL2321822, “Synthesis and biological evaluation of 1-(6-methylpyridin-2-yl)-5-(quinoxalin-6-yl)-1,2,3-triazoles as transforming growth factor-β type 1 receptor kinase inhibitors” (Bioorg Med Chem Lett, 2013).
